Experimental data published in PMC8648872, “A host-directed macrocyclic peptide therapeutic for MDR gram negative bacterial infections” (Scientific Reports, 2021).
≈ marks a conversion by molar mass, not a printed value. Read-outs that look alike come from different tables or passages of the source. Where a SMILES comes first, the peptide text is derived from it. Bridges are numbered along the chain shown (N, C = ends).

Legend:
[1] = system: E. coli BAA-2340 (KPC-2); experiment: microbe, parasite or virus in culture; type: cell-based
Method: (§1) Bacterial strains were obtained from American Type Culture Collection. K. pneumoniae strains included BAA-1705 (blaKPC-2, hypermucoid), BAA-2146 (blaNDM-1), BAA-700603 (SHV-18, extended spectrum β-lactamase, ESBL), and BAA-1706 (non-CRE reference strain). E. coli strains included BAA-2340 (blaKPC-2), BAA-2471 (blaNDM-1), and ML35 (non-CRE reference strain).
(§2) Minimum inhibitory concentration (MIC) assays were performed ± 50% heat-inactivated mouse serum using Clinical and Laboratory Standards Institute (CLSI; document M07-A9) protocols. Bacteria (5 × 10^5 CFU/ml) were incubated with antibiotics or peptide for 20 h at 37 °C, and bacterial growth was determined by A620 using a SpectraMax M5e plate reader.

[2] = system: E. coli BAA-2471 (NDM-1); experiment: microbe, parasite or virus in culture; type: cell-based
Method: as §1, §2

[3] = system: E. coli ML35; experiment: microbe, parasite or virus in culture; type: cell-based; settings: E. coli ML35, no MDR factor
Method: as §1, §2

[4] = system: K. pneumoniae 700603 (ESBL); experiment: microbe, parasite or virus in culture; type: cell-based
Method: as §1, §2

[5] = system: K. pneumoniae BAA-1705 (KPC-2); experiment: microbe, parasite or virus in culture; type: cell-based; settings: 37 °C
Method: as §1, §2

[6] = system: K. pneumoniae BAA-1706; experiment: microbe, parasite or virus in culture; type: cell-based
Method: as §1, §2

[7] = system: K. pneumoniae BAA-2146 (NDM-1); experiment: microbe, parasite or virus in culture; type: cell-based
Method: as §1, §2

[8] = system: Kp-1705 (K. pneumoniae BAA-1705); experiment: Kp-1705 bacteremic sepsis, survival; type: in vivo, BALB/c mice; settings: Kp-1705 i.p. in BALB/c mice; single i.p. dose 1.25 mg/kg 1 h p.i.
Method: BALB/c mice (Jackson Laboratories) 8–10 weeks of age were acclimated (3–5 to a cage for at least 5 days prior to infection) in a thermostatically controlled room with 12 h light/dark cycle. Cryopreserved K. pneumoniae cells were thawed and adjusted to a density of 6–10 × 10^8 CFU/ml, confirmed by plating on trypticase soy agar (TSA) plates. E. coli BAA-2340 was grown to log-phase in trypticase soy broth, pelleted, washed with PBS, and resuspended in PBS at 0.5–1 × 10^9 CFU/ml. Mice were infected by i.p. injection of 2–5 × 10^8 CFU of Kp-1705 or 3–6 × 10^7 CFU of E. coli BAA-2340 using a 28 g needle in a volume of 0.5 ml. Post-infection, mice were observed three times a day for at least 4 days and then daily for 28 days. Mice were euthanized when they became moribund. All experiments used both male and female mice and were repeated at least twice.

[9] = system: disseminated candidiasis; settings: mouse models of disseminated candidiasis; cited from earlier work
Text: MTD12813 is a bioinspired macrocyclic peptide that is structurally related to naturally occurring θ-defensins. RTD-1, the prototype θ-defensin, was identified as a broad-spectrum antimicrobial peptide in vitro[8],[9]. […] Mechanisms implicated in the moderation of cytokine-driven inflammation include modulation of NFκB and MAPK pathways, suppression of TNF release via the inhibition of the pro-TNF sheddase TACE (ADAM17)[26], and dis ...

[10] = system: CRE and non-CRE strains of K. pneumoniae and E. coli; type: cell-based; settings: standard CLSI assay conditions
Method: as §1, §2

[11] = Escherichia coli, BAA2471, 50% heat inactivated mouse serum, read-out: MIC
[12] = Escherichia coli, BAA2471, CLSI, 20 h, 37 °C, A620, no serum, read-out: MIC
[13] = Escherichia coli, 50% heat inactivated mouse serum, read-out: MIC
[14] = Escherichia coli, CLSI, 20 h, 37 °C, A620, no serum, read-out: MIC
[15] = Klebsiella pneumoniae, 50% heat inactivated mouse serum, read-out: MIC
[16] = Klebsiella pneumoniae, CLSI, 20 h, 37 °C, A620, no serum, read-out: MIC
[17] = Klebsiella pneumoniae, BAA1705, CLSI M07-A9, 5 × 10^5 CFU/ml, 20 h, A620, no serum, read-out: MIC
[18] = Klebsiella pneumoniae, BAA1706, K. pneumoniae BAA-1706, no MDR factor, 50% heat inactivated mouse serum, read-out: MIC
[19] = Klebsiella pneumoniae, BAA2146, 50% heat inactivated mouse serum, read-out: MIC
[20] = Klebsiella pneumoniae, BAA2146, CLSI, 20 h, 37 °C, A620, no serum, read-out: MIC
[21] = in the presence of 50% heat inactivated mouse serum, 20 h, A620
[22] = E. coli BAA-2340, KPC-2, 50% heat inactivated mouse serum
[23] = E. coli BAA-2340, KPC-2, CLSI, 20 h, 37 °C, A620, no serum
[24] = 50% heat inactivated mouse serum
[25] = CLSI, 20 h, 37 °C, A620, no serum
[26] = CLSI M07-A9, 5 × 10^5 CFU/ml, 20 h, A620, no serum
[27] = K. pneumoniae BAA-1706, no MDR factor, 50% heat inactivated mouse serum
[28] = K. pneumoniae BAA-1706, no MDR factor, CLSI, 20 h, 37 °C, A620, no serum

C[C@@H](O)[C@H]1C(=O)N2C(C(=O)O)=C(SCCN=CN)C[C@H]12 [Imipenem]
MIC ([1]; Escherichia coli, BAA2340): 6.25 µg/mL (≈ 20.9 µM)
MIC ([1]; Escherichia coli, BAA2340, E. coli BAA-2340, KPC-2, CLSI, 20 h, 37 °C, A620, no serum, read-out: MIC): 25 µg/mL (≈ 83.5 µM)
MIC [2, 11]: 25 µg/mL (≈ 83.5 µM)
MIC [2, 12]: 50 µg/mL (≈ 167 µM)
MIC [3, 13]: < 0.78 µg/mL
MIC [3, 14]: < 0.78 µg/mL
MIC [4, 15]: < 0.78 µg/mL
MIC [4, 16]: < 0.78 µg/mL
MIC ([5]; Klebsiella pneumoniae, BAA1705, 20 h, in the presence of 50% heat inactivated mouse serum, A620): 12.5 µg/mL
MIC [5, 17]: > 100 µg/mL
MIC [6, 18]: < 0.78 µg/mL
MIC ([6]; Klebsiella pneumoniae, BAA1706, K. pneumoniae BAA-1706, no MDR factor, CLSI, 20 h, 37 °C, A620, no serum, read-out: MIC): 3.13 µg/mL (≈ 10.5 µM)
MIC [7, 19]: 25 µg/mL (≈ 83.5 µM)
MIC [7, 20]: > 100 µg/mL
long term (≥ 28 days) survival [8]: neither carbapenem provided significant survival benefit

C[C@@H](O)[C@H]1C(=O)N2C(C(=O)O)=C(S[C@@H]3CN[C@H](C(=O)N(C)C)C3)[C@H](C)[C@H]12 [Meropenem]
MIC ([1]; Escherichia coli, BAA2340): 6.25 µg/mL (≈ 16.3 µM)
MIC ([1]; Escherichia coli, BAA2340, 20 h): 6.25 µg/mL (≈ 16.3 µM)
MIC [2, 11]: > 100 µg/mL
MIC [2, 12]: 50 µg/mL (≈ 130 µM)
MIC [3, 13]: < 0.78 µg/mL
MIC [3, 14]: < 0.78 µg/mL
MIC [4, 15]: < 0.78 µg/mL
MIC [4, 16]: < 0.78 µg/mL
MIC [5, 17]: 50 µg/mL (≈ 130 µM)
MIC [5, 21]: 50 µg/mL
MIC ([6]; Klebsiella pneumoniae, BAA1706, 20 h): 1.56 µg/mL (≈ 4.07 µM)
MIC [6, 18]: < 0.78 µg/mL
MIC [7, 19]: > 100 µg/mL
MIC [7, 20]: 100 µg/mL (≈ 261 µM)
long term (≥ 28 days) survival [8]: neither carbapenem provided significant survival benefit

CC[C@H](C)[C@@H]1NC(=O)[C@@H]2CSSC[C@H](NC(=O)[C@H](CCCNC(=N)N)NC(=O)[C@@H]3CSSC[C@H](NC1=O)C(=O)N[C@@H]([C@@H](C)O)C(=O)N[C@@H](CCCNC(=N)N)C(=O)NCC(=O)N[C@@H](Cc1ccccc1)C(=O)N3)C(=O)N[C@@H](CC(C)C)C(=O)N[C@H]1CSSC[C@H](NC(=O)[C@H](C(C)C)NC(=O)CNC(=O)[C@H](CCCNC(=N)N)NC(=O)[C@H](CCCNC(=N)N)NC1=O)C(=O)N[C@@H](CCCNC(=N)N)C(=O)N2 [RTD-1] (cyclo(GFCRCLCRRGVCRCICTR); disulfide 3-16, 5-14, 7-12)
MIC [1, 22]: > 100 µg/mL
MIC [1, 23]: 50 µg/mL (≈ 24 µM)
MIC [2, 24]: > 100 µg/mL
MIC [2, 25]: 25 µg/mL (≈ 12 µM)
MIC [3, 24]: > 100 µg/mL
MIC [3, 25]: 25 µg/mL (≈ 12 µM)
MIC [4, 24]: > 100 µg/mL
MIC [4, 25]: > 100 µg/mL
MIC [5, 26]: > 100 µg/mL
MIC [5, 21]: > 100 µg/mL
MIC [6, 27]: > 100 µg/mL
MIC [6, 28]: > 100 µg/mL
MIC [7, 24]: > 100 µg/mL
MIC [7, 25]: 100 µg/mL (≈ 48 µM)
plasma Cmax as share of the MIC of the peptide [9]: < 1%

Colistin
MIC [1, 22]: < 0.78 µg/mL
MIC [1, 23]: < 0.78 µg/mL
MIC [2, 24]: < 0.78 µg/mL
MIC [2, 25]: < 0.78 µg/mL
MIC [3, 24]: < 0.78 µg/mL
MIC [3, 25]: < 0.78 µg/mL
MIC [4, 24]: < 0.78 µg/mL
MIC [4, 25]: < 0.78 µg/mL
MIC [5, 26]: < 0.78 µg/mL
MIC [5, 21]: < 0.78 µg/mL
MIC [6, 27]: < 0.78 µg/mL
MIC [6, 28]: < 0.78 µg/mL
MIC [7, 24]: < 0.78 µg/mL
MIC [7, 25]: < 0.78 µg/mL
MIC against all seven organisms of the panel [10]: < 0.78 µg/mL
long term (≥ 28 days) survival [8]: 100%

Polymyxin B
MIC [1, 22]: < 0.78 µg/mL
MIC [1, 23]: < 0.78 µg/mL
MIC [2, 24]: < 0.78 µg/mL
MIC [2, 25]: < 0.78 µg/mL
MIC [3, 24]: < 0.78 µg/mL
MIC [3, 25]: < 0.78 µg/mL
MIC [4, 24]: < 0.78 µg/mL
MIC [4, 25]: < 0.78 µg/mL
MIC [5, 26]: < 0.78 µg/mL
MIC [5, 21]: < 0.78 µg/mL
MIC [6, 27]: < 0.78 µg/mL
MIC [6, 28]: < 0.78 µg/mL
MIC [7, 24]: < 0.78 µg/mL
MIC [7, 25]: < 0.78 µg/mL
MIC against all seven organisms of the panel [10]: < 0.78 µg/mL
long term (≥ 28 days) survival [8]: 95%
